Measurements from ChEMBL document CHEMBL5357068, “Discovery of Novel TLR7 Agonists as Systemic Agent for Combination With aPD1 for Use in Immuno-oncology” (ACS Med Chem Lett, 2024).
Calls of active or inactive are those of the source. The rule behind the calls is not given here.

Tests used:
[1] = Inhibition of GPCR (unknown origin); design: species or system Homo sapiens
[2] = Drug concentration in Balb/c mouse at […], iv measured after 5 min by LC-MS analysis; assay type: ADME, organism-based; conditions: in vivo, dose 0.15 mg/kg, read-out: Drug uptake
[3] = AUClast in Balb/c mouse at […], iv measured after 2 hrs by LC-MS analysis; assay type: ADME, organism-based; design: time 2 hrs, dose 0.15 mg/kg, route iv; conditions: in vivo
[4] = system: Blood; assay: Induction of IFIT1 secretion in human whole blood; assay type: functional, tissue-based
[5] = Drug concentration in Balb/c mouse at 0.5 mg/kg, iv measured after 5 min by LC-MS analysis; assay type: ADME, organism-based; conditions: in vivo, read-out: Drug uptake
[6] = system: Blood; assay: Induction of IFIT3 secretion in human whole blood; assay type: functional, tissue-based
[7] = Protein binding in human plasma assessed as free fraction; assay type: ADME, cell-free
[8] = Protein binding in mouse plasma assessed as free fraction; assay type: ADME, cell-free
[9] = target: T1, Nuclear receptor subfamily 1 group I member 2 (Homo sapiens, UniProt O75469); assay: Transactivation of PXR (unknown origin)
T1 sequence (O75469 whole entry): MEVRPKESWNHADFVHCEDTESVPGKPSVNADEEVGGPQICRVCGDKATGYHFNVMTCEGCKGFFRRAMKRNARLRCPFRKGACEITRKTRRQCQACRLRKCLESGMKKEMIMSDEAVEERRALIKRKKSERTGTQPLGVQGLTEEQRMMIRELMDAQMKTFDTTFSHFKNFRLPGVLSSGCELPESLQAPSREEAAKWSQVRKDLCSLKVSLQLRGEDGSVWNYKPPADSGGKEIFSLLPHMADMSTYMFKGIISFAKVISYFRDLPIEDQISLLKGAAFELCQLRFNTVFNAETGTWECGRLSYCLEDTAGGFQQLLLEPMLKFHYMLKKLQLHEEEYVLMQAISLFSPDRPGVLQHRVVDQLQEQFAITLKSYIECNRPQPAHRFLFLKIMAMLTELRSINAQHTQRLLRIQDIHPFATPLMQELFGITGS

[10] = Metabolic stability in cynomolgus monkey liver microsomes assessed as half-life; assay type: ADME, Macaca fascicularis, Microsome
[11] = Metabolic stability in mouse liver microsomes assessed as compound remaining; assay type: ADME, Microsome
[12] = system: Blood; assay: Induction of TNF-alpha secretion in mouse whole blood; assay type: functional, tissue-based
[13] = Metabolic stability in mouse liver microsomes assessed as half-life; assay type: ADME, Microsome
[14] = target: Voltage-gated inwardly rectifying potassium channel KCNH2 (Homo sapiens, UniProt Q12809); assay: Inhibition of hERG by patch clamp assay; assay type: toxicity
[15] = system: Mus musculus; assay: Induction of IFN-alpha production in iv dosed Balb/c mouse serum measured after 6 hrs by ELISA analysis; assay type: functional, organism-based; conditions: dose lower […], dose upper 0.5 mg/kg
[16] = system: Mus musculus; assay: Induction of IFN-alpha production in Balb/c mouse serum at […], iv measured after 6 hrs by ELISA analysis; assay type: functional, organism-based

Sequence of Voltage-gated inwardly rectifying potassium channel KCNH2 (Q12809 whole entry): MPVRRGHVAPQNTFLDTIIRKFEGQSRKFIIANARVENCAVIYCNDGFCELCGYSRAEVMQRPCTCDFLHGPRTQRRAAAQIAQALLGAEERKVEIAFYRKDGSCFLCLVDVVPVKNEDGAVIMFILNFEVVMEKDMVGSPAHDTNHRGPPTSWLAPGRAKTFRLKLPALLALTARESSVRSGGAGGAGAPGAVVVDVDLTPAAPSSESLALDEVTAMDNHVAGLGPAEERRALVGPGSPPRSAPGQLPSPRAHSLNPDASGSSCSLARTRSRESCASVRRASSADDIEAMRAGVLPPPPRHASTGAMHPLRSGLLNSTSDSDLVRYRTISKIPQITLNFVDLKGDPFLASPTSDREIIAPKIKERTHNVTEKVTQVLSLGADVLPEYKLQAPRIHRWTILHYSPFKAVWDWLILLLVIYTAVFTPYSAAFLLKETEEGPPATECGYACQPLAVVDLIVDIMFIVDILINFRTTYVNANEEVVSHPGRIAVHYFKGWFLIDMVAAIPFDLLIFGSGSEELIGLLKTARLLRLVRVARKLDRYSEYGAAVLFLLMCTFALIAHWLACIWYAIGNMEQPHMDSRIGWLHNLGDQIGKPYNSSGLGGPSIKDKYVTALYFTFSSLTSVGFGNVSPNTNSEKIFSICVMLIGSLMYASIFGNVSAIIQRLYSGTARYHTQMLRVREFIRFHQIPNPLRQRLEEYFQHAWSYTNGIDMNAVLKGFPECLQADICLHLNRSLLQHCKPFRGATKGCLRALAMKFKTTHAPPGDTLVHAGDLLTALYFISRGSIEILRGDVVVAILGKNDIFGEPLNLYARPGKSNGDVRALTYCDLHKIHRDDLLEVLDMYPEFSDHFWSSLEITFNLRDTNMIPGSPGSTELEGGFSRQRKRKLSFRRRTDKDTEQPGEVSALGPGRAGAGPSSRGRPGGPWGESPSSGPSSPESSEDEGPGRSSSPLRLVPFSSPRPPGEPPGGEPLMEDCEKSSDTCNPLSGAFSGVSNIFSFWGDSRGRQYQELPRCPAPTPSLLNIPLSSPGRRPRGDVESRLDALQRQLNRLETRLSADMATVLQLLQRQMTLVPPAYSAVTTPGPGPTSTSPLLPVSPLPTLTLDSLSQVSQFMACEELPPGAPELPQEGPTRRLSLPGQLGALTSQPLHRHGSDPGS

Structure (SMILES): CCC[C@@H](CCO)Nc1nc(N)nc2cnn(Cc3ccc(CNC4CCOCC4)cc3OC)c12
- IC50 [1]: > 30000 nM
- concentration at 5 min [2]: 85 nM
- AUC(0-t) at 2 h [3]: 0.075 µM·h
- EC50 [4]: 0.1 nM
- concentration at 5 min [5]: 139 nM
- EC50 [6]: 0.11 nM
- fraction unbound [7]: 0.5
- fraction unbound [8]: 0.41
- EC [9]: > 50 nM
- half-life [10]: 16 min
- Stability [11]: 81%
- EC50 [12]: 3.4 nM
- half-life [13]: 85 min
- IC50 [14]: ≥ 45000 nM
- Activity [15]: Dose-Dependent Effect
- Activity [16]: inactive
